Measurements published in ChEMBL document CHEMBL5608170, “An insight into sustainable and green chemistry approaches for the synthesis of quinoline derivatives as anticancer agents” (Eur J Med Chem, 2024).
≈ marks a conversion by molar mass, not a printed value. Values belong to the compound of their own block, whether it stands above or below them.

How the values were obtained:
TK-10 = assay: Growth inhibition of human TK-10 cells at 10 uM by SRB assay relative to control; format: functional; settings: read-out: GI
UO-31 = assay: Growth inhibition of human UO-31 cells at 10 uM by SRB assay relative to control; format: functional; settings: read-out: GI
HOP-92 = assay: Growth inhibition of human HOP-92 cells at 10 uM by SRB assay relative to control; format: functional; settings: read-out: GI
Hs-578T = assay: Growth inhibition of human Hs-578T cells at 10 uM by SRB assay relative to control; format: functional; settings: read-out: GI
CAKI-1 = assay: Growth inhibition of human CAKI-1 cells at 10 uM by SRB assay relative to control; format: functional; settings: read-out: GI
MCF7 [1] = assay: Cytotoxicity against human MCF7 cells assessed as reduction in cell viability incubated for 24 hrs by MTT assay; format: functional, cell-based; settings: MCF7, 24 h
HepG2 [2] = assay: Cytotoxicity against human HepG2 cells assessed as reduction in cell viability incubated for 24 hrs by MTT assay; format: functional, cell-based; settings: HepG2, 24 h
B16-F10 = assay: Cytotoxicity against mouse B16-F10 cells assessed as reduction in cell viability incubated for 48 hrs by MTT assay; format: functional, cell-based; settings: B16-F10, 48 h
HCT-116 = assay: Cytotoxicity against human HCT-116 cells assessed as reduction in cell viability incubated for 24 hrs by MTT assay; format: functional, cell-based; settings: HCT-116, 24 h
A549 [3] = assay: Cytotoxicity against human A549 cells assessed as reduction in cell viability incubated for 24 hrs by MTT assay; format: functional, cell-based; settings: A549, 24 h
HepG2 [4] = assay: Cytotoxicity against human HepG2 cells assessed as reduction in cell growth by MTT assay; format: functional, cell-based
A549 [5] = assay: Cytotoxicity against human A549 cells assessed as reduction in cell growth by MTT assay; format: functional, cell-based
MCF7 [6] = assay: Cytotoxicity against human MCF7 cells assessed as reduction in cell growth by MTT assay; format: functional, cell-based
HBL-100 = assay: Growth inhibition of human HBL-100 cells; format: functional
HT-29 = assay: Cytotoxicity against human HT-29 cells assessed as reduction in cell viability incubated for 72 hrs by MTT assay; format: functional, cell-based; settings: HT-29, 72 h
A549 [7] = assay: Cytotoxicity against human A549 cells assessed as reduction in cell viability incubated for 72 hrs by MTT assay; format: functional, cell-based; settings: A549, 72 h
MDA-MB-231 [8] = assay: Cytotoxicity against human MDA-MB-231 cells assessed as reduction in cell viability incubated for 48 hrs by MTT assay; format: functional, cell-based; settings: MDA-MB-231, 48 h
HCT 116 TP53(-/-) = assay: Antiproliferative activity against human HCT116-p53-null cells assessed as reduction in cell viability by MTT assay; format: functional, cell-based
HeLa [9] = assay: Growth inhibition of human HeLa cells; format: functional
SW1573 = assay: Growth inhibition of human SW1573 cells; format: functional
WiDr = assay: Growth inhibition of human WiDr cells; format: functional
T47D = assay: Growth inhibition of human T47D cells; format: functional
A549 [10] = assay: Growth inhibition of human A549 cells; format: functional
HeLa [11] = assay: Anticancer activity against human HeLa cells assessed as reduction in cell growth incubated for 48 hrs by MTT assay; format: functional, cell-based
MCF7 [12] = assay: Anticancer activity against human MCF7 cells assessed as reduction in cell growth incubated for 48 hrs by MTT assay; format: functional, cell-based; settings: MCF7, 48 h
A549 [13] = assay: Anticancer activity against human A549 cells assessed as reduction in cell growth incubated for 48 hrs by MTT assay; format: functional, cell-based; settings: A549, 48 h
HeLa [14] = assay: Growth inhibition of human HeLa cells by SRB assay; format: functional
MDA-MB-231 [15] = assay: Cytotoxicity against human MDA-MB-231 cells assessed as reduction in cell growth measured for 48 hrs by MTT assay; format: functional, cell-based; settings: MDA-MB-231, 48 h

SMILES: Cc1cc(=O)n(C(=O)Nc2ccccc2)c2cc(O)ccc12
inhibition of growth at 10 µM (TK-10): 82.9% | inhibition of growth at 10 µM (UO-31): 23.1% | inhibition of growth at 10 µM (HOP-92): 16% | inhibition of growth at 10 µM (Hs-578T): 11.5% | inhibition of growth at 10 µM (CAKI-1): 12.4%

SMILES: Cc1ccc2ccc3c(c2n1)OC(N)=C(C#N)C3c1cccc(Cl)c1Cl (stereo not drawn)
IC50 (MCF7 [1]): 1.24 mg/L (≈ 3.24 µM) | IC50 (HepG2 [2]): 1.83 mg/L (≈ 4.79 µM)

SMILES: COc1cc2nccc(Oc3ccc(NC(=O)Nc4cc(C)on4)c(Cl)c3)c2cc1OC [TIVOZANIB]
IC50 (B16-F10): 18.8 µM

SMILES: N#CC1=C(N)Oc2c(cc(Cl)c3cccnc23)C1c1cccc(Cl)c1Cl (stereo not drawn)
IC50 (MCF7 [1]): 2.47 mg/L (≈ 6.13 µM) | IC50 (HCT-116): 7.94 mg/L (≈ 19.7 µM) | IC50 (HepG2 [2]): 1.48 mg/L (≈ 3.68 µM) | IC50 (A549 [3]): 15.6 mg/L (≈ 38.7 µM)

SMILES: N#CC1C(=S)N=C2C(=C1c1ccc(Cl)cc1)CCC/C2=C\c1ccc(Cl)cc1 (stereo not drawn)
IC50 (HepG2 [4]): 2.86 mg/L (≈ 6.76 µM) | IC50 (A549 [5]): 25.5 mg/L (≈ 60.3 µM) | IC50 (MCF7 [6]): 3.17 mg/L (≈ 7.49 µM)

SMILES: N#CC1C(=S)N=C2C(=C1c1ccc(F)cc1)CCC/C2=C\c1ccc(F)cc1 (stereo not drawn)
IC50 (HepG2 [4]): 11.2 mg/L (≈ 28.8 µM) | IC50 (A549 [5]): 28.4 mg/L (≈ 72.9 µM) | IC50 (MCF7 [6]): 13.1 mg/L (≈ 33.7 µM)

SMILES: CCOc1cc2ncc(C#N)c(Nc3ccc(OCc4ccccn4)c(Cl)c3)c2cc1NC(=O)/C=C/CN(C)C [NERATINIB]
GI50 (HBL-100): 1.6 µM

SMILES: N#CC1=C(N)Oc2c(ccc3cccnc23)C1c1cccc(Cl)c1 (stereo not drawn)
IC50 (MCF7 [1]): 1.42 mg/L (≈ 4.25 µM) | IC50 (HCT-116): 1.35 mg/L (≈ 4.04 µM) | IC50 (HepG2 [2]): 1.87 mg/L (≈ 5.6 µM) | IC50 (A549 [3]): 1.23 mg/L (≈ 3.69 µM)

SMILES: COc1cc(/C=C2\OCc3nc4ccccc4c(C)c3C2=O)cc(OC)c1OC
IC50 (HT-29): 6.69 mg/L (≈ 17.1 µM) | IC50 (A549 [7]): 3.68 mg/L (≈ 9.4 µM)

SMILES: COc1cc2c(Oc3ccc4[nH]c(C)cc4c3F)ccnc2cc1OCC1(N)CC1 [CATEQUENTINIB]
IC50 (MDA-MB-231 [8]): 17 µM

IC50 (HCT 116 TP53(-/-)): 4.8 µM
SMILES: COc1ccc(Nc2nc3ccccc3c(NCc3ccccc3Cl)c2[N+](=O)[O-])cc1

GI50 (HeLa [9]): 8.3 µM | GI50 (SW1573): 20 µM | GI50 (T47D): 16 µM | GI50 (A549 [10]): 7.7 µM
SMILES: CCOc1cc2ncc(C#N)c(Nc3ccc(F)c(Cl)c3)c2cc1NC(=O)/C=C/CN(C)C [PELITINIB]
GI50 (WiDr): 12 µM | GI50 (HBL-100): 19 µM

SMILES: N#CC1=C(N)Oc2c(cc(Cl)c3cccnc23)C1c1ccc(Br)cc1 (stereo not drawn)
IC50 (MCF7 [1]): 0.99 mg/L (≈ 2.4 µM) | IC50 (HCT-116): 5.81 mg/L (≈ 14.1 µM) | IC50 (HepG2 [2]): 1.23 mg/L (≈ 2.98 µM) | IC50 (A549 [3]): 3.1 mg/L (≈ 7.51 µM)

SMILES: N#CC1=C(N)Oc2c(cc(Cl)c3cccnc23)C1c1ccc(Cl)cc1Cl (stereo not drawn)
IC50 (MCF7 [1]): 1.18 mg/L (≈ 2.93 µM) | IC50 (HCT-116): 3.01 mg/L (≈ 7.48 µM) | IC50 (HepG2 [2]): 0.87 mg/L (≈ 2.16 µM) | IC50 (A549 [3]): 1.79 mg/L (≈ 4.45 µM)

SMILES: COc1ncc(-c2cc(-c3cn(Cc4ccccc4F)nn3)cc3ccc(C)nc23)cc1F
IC50 (MDA-MB-231 [8]): 20.6 µM

IC50 (HeLa [11]): 11.4 µM | IC50 (MCF7 [12]): 16.9 µM | IC50 (A549 [13]): 32.5 µM
SMILES: Cc1cc(C)cc(-n2nnc3c2-c2ccc4cccnc4c2OC3)c1

GI50 (HeLa [14]): < 0.1 µM
SMILES: CC(=O)NC1=NN(C(C)=O)C(c2cc3cc(Br)ccc3n3nnnc23)S1 (stereo not drawn)

SMILES: Cc1ccc2ccc3c(c2n1)OC(N)=C(C#N)C3c1cccc(Cl)c1 (stereo not drawn)
IC50 (MCF7 [1]): 5.79 mg/L (≈ 16.6 µM) | IC50 (HepG2 [2]): 3.01 mg/L (≈ 8.65 µM)

SMILES: O=C1N(c2ccc([N+](=O)[O-])cc2[N+](=O)[O-])c2[nH]c(=O)[nH]c(=O)c2C12c1ccccc1Nc1c2[nH]c(=O)[nH]c1=O (stereo not drawn)
IC50 (MDA-MB-231 [15]): 10.6 µM

SMILES: N#CC1=C(N)Oc2c(cc(Cl)c3cccnc23)C1c1cccc(Cl)c1 (stereo not drawn)
IC50 (MCF7 [1]): 0.9 mg/L (≈ 2.44 µM) | IC50 (HCT-116): 3.04 mg/L (≈ 8.26 µM) | IC50 (HepG2 [2]): 0.7 mg/L (≈ 1.9 µM) | IC50 (A549 [3]): 2.67 mg/L (≈ 7.25 µM)
